Experimental data reported in US20230181463A1, “OLEOGEL AND OLEOPASTE COMPOSITIONS AND USES THEREOF” (Massachusetts Institute of Technology, priority 2020, published 2023).
One block for each compound: values may come before it.

Key:
[1] = cited from earlier work
[2] = Solubility of albendazole in oil and oil-solubilizer formulations; conditions: 28 formulations
[3] = Release of ABZ from non-oil-based formulations in SIF; assay type: in vitro ADME
Protocol: To test the effect of nanosizing, the rate of release of ABZ in SIF when ABZ was used unformulated and when formulated in nanoparticles was compared. Additionally, a physical mixture of ABZ, PVA and Tween 20 was prepared to delineate the effects that the excipients had on drug release and the effect of nanosizing.
For the release study, 17.5 mg of the nanoparticle formulation, or physical mixture were placed in a 50-ml falcon tube. ABZ powder equivalent to the amount present in the physical mixture and nanoparticle formulation was used for the drug release. SIF was added to each formulation and drug release studies were conducted as described for AZT. Concentration of ABZ in release media was measured using HPLC.
ABZ samples after being prepared with methanol were analysed by Agilent 1260 Infinity I Quaternary LC equipped with a diode array detector (DAD). Isocratic elution of 0.1% formic acid in distilled water and acetonitrile was 55:45 with flow rate of 1 ml/min. Injection volume was 5 μl, and Zobrax Eclipse XDB C18 column (4.6×150 mm) was used at 40° C. The running time was 6 minutes and the retention time of ABZ is 3.4 mins. DAD was employed, and readout was detected at the wavelength of 254 nm, bandwidth of 4.0 nm and 10 Hz data acquisition rate. The method gained good peak shape and symmetry.

[4] = Lindenberg et al., 2004; cited from earlier work
[5] = Protocol: Solubility of three anti-infectives, azithromycin, praziquantel and lumefantrine, were measured in 108 formulations prepared by mixing various oils and solubilizers (9 oils×11 solubilizers, and 9 oils without solubilizer). Given the focus in rapid clinical translation, the weight fraction of the solubilizer was limited to the maximum level they were used in FDA-approved products.
Approximately two grams of oil-solubilizer mixtures in a 20 mL glass vial. Drug was added in excess to each formulation and the mixture was stirred overnight at room temperature. One milliliter of the mixture was removed, placed in a microcentrifuge tube, and centrifuged at 6000 rpm for 15 min to remove insoluble drug particles. A fraction of the supernant was removed and drug was extracted using methanol or acetonitrile. Drug concentrations in the extracts were measured using HPLC.
An Agilent 1260 Infinity II HPLC system equipped with a quaternary pump, autosampler, thermostat, control module, and diode array detector. Data processing and analysis was performed using OpenLab CDS ChemStation®. Praziquantel chromatographic separations were carried out on an Agilent ZORBAX Eclipse Plus C-18 analytical column (4.6>150 mm) with 5 μm particles, maintained at 40° C. Gradient separation at a flow rate of 1 mL/min was achieved using water and acetonitrile, which corresponds to A and B, respectively. The run time was 5 minutes with a 3-minute post-run and a gradient profile of: 0 min A: 70% and B: 30%, 2.5 min A: 30% and B: 70%. The injection volume was 5 μL. The diode array detector was set using an ultraviolet (UV) detection wavelength of 217 nm with no reference at an acquisition rate of 40 hertz.
Azithromycin chromatographic separations were carried out on an Agilent 4.6×150 mm ZORBAX Eclipse Plus C-18 analytical column with 5 μm particles, maintained at 40° C. Isocratic separation at a flow rate of 1 mL/min was achieved using 10% 10 mM ammonium phosphate dibasic in water and 90% methanol. The run time was 6 minutes. The injection volume was 10 μL. The diode array detector was set using an ultraviolet (UV) detection wavelength of 210 nm with no reference at an acquisition rate of 5 hertz.
Lumefantrine chromatographic separations were carried out on an Agilent Poroshell 120 PFP column (4.6×100 mm) with 2.7 μm particles, maintained at 40° C. Gradient separation at a flow rate of 1 mL/min was achieved using 0.1% formic acid in water and methanol, which corresponds to A and B, respectively. The run time was 7 minutes with a 3-minute post-run and a gradient profile of: 0 min A: 30% and B: 70%, 3 min A: 5% and B: 95%. The injection volume was 10 μL. The diode array detector was set using an ultraviolet detection wavelength of 303 nm with no reference wavelength at an acquisition rate of 40 hertz.

[6] = Stability of AZT during synthesis of oleogel (heating in cottonseed oil at 90° C.); assay type: physicochemical; conditions: AZT 1 mg/g in cottonseed oil; 0, 5 and 10 mins; one-way ANOVA, α=0.05
Protocol: Twenty-five milligrams of AZT were added to cottonseed oil in a glass vial at concentration of 1 mg/g. After 60 minutes of sonication, all drug powder was dissolved. The AZT solution was divided into three parts (8 ml each). One part was maintained at room temperature, while the other two were placed on a hot plate at 90° C. for 5 minutes and 10 minutes. Forty microliters from each vial were pipetted into 1.5-ml microcentrifuge tube containing 1 ml of methanol. AZT was extracted from the oil phase into the methanol phase by shaking on a horizontal shaker overnight. Following overnight extraction, the oil phase was separated from the methanol phase by centrifugation at 14000 RPM for 10 minutes. The methanol phase was diluted before analysis using liquid chromatography-mass spectrometry (LC-MS).
AZT concentration in methanol extract was analysed by LC-MS on Agilent 1260 Infinity I Quaternary LC equipped with a diode array detector (DAD) and Agilent 6120B Single Quadrupole mass spectrometer hardware and software. Roxithromycin (RXT) was used as an internal standard of AZT analysis. The linear range of AZT detection was 10-5000 ng/ml. […] The flow rate was 0.75 ml/min while chromatograms were recorded at wavelength of 210 nm, bandwidth of 4.0 nm and 5 Hz data acquisition rate. […]

[7] = model input, Beringer et al., 2005; cited from earlier work
[8] = Stability of drugs in oleogels; assay type: physicochemical; conditions: oleogel, 40° C., mean±S.D., n=5
Protocol: Finally, the stability of drugs in oleogels was tested (Table 3.3). Oleogels loaded with drugs (Azithromycin, Lumefantrine, or Ivermectin) were placed at different temperatures. At various times, drug was extracted from the oleogel and the concentration was measured using HPLC-UV or LC-MS/MS. Drug stability (last column) is represented as mean±S.D., n=5.

[9] = cited from earlier work; remark: listed apart in the source
[10] = In vitro digestion and drug bioaccessibility of praziquantel-loaded gel; assay type: in vitro ADME; conditions: from oleogel
Protocol: The digestion of gels were characterized in three simulated conditions—oral, gastric and intestinal phases (fasted state).
Simulated salivary fluid (SSF) pH 7.0 was prepared in the presence of a-amylase based on a previously described method^24,43 with slight modifications. Briefly, SSF stock solution (1.25x concentrated, 3.5 mL) was placed in a glass vial. The 1.25× SSF stock solution contained the following ingredients: 15.1 mmol/L potassium chloride, 3.7 mmol/L potassium dihydrogen phosphate, 13.6 mmol/L sodium bicarbonate, 0.15 mmol/L magnesium chloride and 0.06 mmol/L ammonium carbonate. To this 0.5 mL of a-amylase solution (0.3 mg/mL in SSF stock solution), 0.025 mL of 0.3M calcium chloride and 0.975 mL of water were added and thoroughly mixed.
The SSF was added to 0.5 g praziquantel-loaded gel placed in a pre-heated glass vial at 37° C. containing 5 glass beads to aid in mixing. The vials were placed in an incubator shaker and shaken at 160 rpm and 37° C. One hundred microliters of the sample were withdrawn periodically, centrifuged at 14,000 rpm for 15 min. The supernant was collected and syringe filtered through a 0.22 μm nylon syringe filter (Nalgene Syringe Filters, Thermo Scientific™). Drug concentration in the filtrate was analyzed using HPLC.
In vitro digestion in gastric phase was performed in 7.5 mL simulated gastric fluid (SGF) pH 2 (2 g/L sodium chloride, 2.917 g/L concentrated hydrochloric acid) in the presence of pepsin (3.4 g/L). […] Samples (0.2 mL) were withdrawn periodically, centrifuged at 14,000 rpm for 15 min and syringe filtered through 0.22 μm nylon syringe filters (Nalgene Syringe Filters, Thermo Scientific™) prior to drug quantification with HPLC.
The fasting state simulated intestinal fluid version 2 (FaSSIF-V2) medium pH 6.5 was prepared based on a previously described method^44 in the presence of pancreatin (8×USP specification). […] Samples were then centrifuged for 15 min at 14,000 rpm at room temperature and drug concentration in the supernatant was measured using HPLC.

[11] = Stability of ivermectin during heating; assay type: physicochemical; conditions: peceol, ricebran wax, cottonseed oil
Protocol: As manufacturing of the formulation involves heating, the stability of ivermectin during heating was assessed (see FIG. 24).

Compound: CCCSc1ccc2nc(NC(=O)OC)[nH]c2c1 [ABZ, albendazole]
reported water solubility of albendazole [1]: 41 µg/g
solubility in oil and oil-solubilizer formulations higher than reported water solubility [2]: ~10 fold
ABZ released and solubilized, plateau concentration ([3]; 90-minute release, not formulated in oil): 0.05 µg/mL
drug release (in words) ([3]; not formulated in oils, FIGS. 36A-36C): no drug release measured
absorption extent [4]: < 5%

Compound: CCCCN(CCCC)CC(O)c1cc(Cl)cc2c1-c1ccc(Cl)cc1/C2=C/c1ccc(Cl)cc1 (stereo not drawn) [lumefantrine]
average solubility in other Labrafac lipophile formulations lower than with flaxseed oil [5]: ~1.6 fold
average solubility of lumefantrine [5]: 16.6 ± 3.8 mg/g
solubility in tested formulations higher than reported water solubility [5]: ~10000 fold
solubility of lumefantrine [5]: 26.6 ± 1.8 mg/g
solubility of lumefantrine in the oils [5]: > 10 mg/g
reported water solubility of lumefantrine ([9]; reference 40): < 2 µg/g

Compound: ivermectin
drug recovered after heating [11]: 100%
% drug stable ([8]; 28 days, Butylated hydroxyanisole): 98 ± 11%

The next lines start with results.

solubility of azithromycin in the oils [5]: 6 to 10 mg/g
water solubility lower than certain tested formulations [5]: ~100 fold
% drug stable ([8]; 44 days, Propyl gallate): 99 ± 5%
Compound: CC[C@H]1OC(=O)[C@H](C)[C@@H](O[C@H]2C[C@@](C)(OC)[C@@H](O)[C@H](C)O2)[C@H](C)[C@@H](O[C@@H]2O[C@H](C)C[C@H](N(C)C)[C@H]2O)[C@](C)(O)C[C@@H](C)CN(C)[C@H](C)[C@@H](O)[C@]1(C)O [AZT, azithromycin]
AZT concentrations after heating at 90° C. [6]: no statistical effect of temperature on AZT concentrations
ka (absorption rate constant) [7]: 0.452 h⁻¹
solubility of azithromycin in water ([9]; reference 39): ~0.2 mg/g

solubility in sunflower oil higher than in the rest of the oils [5]: ~2 fold
solubility of praziquantel in most oils [5]: 5 to 7 mg/g
solubilized fraction of praziquantel in the aqueous intestinal phase ([10]; FaSSIF-V2 with pancreatin, t=15 min): 51%
praziquantel in the aqueous phase, maximum of total drug content ([10]; simulated gastric digestion (SGF pH 2), within 30 min, plateau to 2 h): 10%
praziquantel detected in the SSF, of total drug content ([10]; simulated salivary fluid): ≤ 1%
Compound: O=C(C1CCCCC1)N1CC(=O)N2CCc3ccccc3C2C1 (stereo not drawn) [praziquantel]
